In test [1] the target is T1, N-type Ca2+ channels in IMR-32 cells (Homo sapiens, UniProt Q00975).
T1 construct: host or cells: IMR-32 cells, differentiated with dibutyryl cAMP and bromodeoxyuridine
As to the kind of experiment: Inhibition of N-type calcium flux in IMR-32 cells (Indo-1 fluorescence, nitrendipine present). As to conditions: for IC50: IMR-32 cells, 5 μM nitrendipine, K+ depolarization; for inhibition at 1 µM / inhibition at 10 µM: IMR-32. The class given is cell-based. The method, boiled down:
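Differentiated IMR-32 cells (7–13 days) were loaded with 5 μM Indo-1 AM, preincubated with compound for 10 min at 30° C, and depolarized with KCl/CaCl2 stimulation solution, with 5 μM nitrendipine blocking L-channels. Peak-minus-basal 400/490 nm emission ratio was plotted against drug concentration, and IC50 came from four-parameter logistic fits.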

The subject of test [2] is K+ channels in superior cervical ganglion (SCG) neurons. As to the kind of experiment: Whole-cell voltage clamp, K+ current in SCG neurons. It counts as cell-based, rat. The procedure:
(§1) Electrophysiological techniques were used to measure the effects of experimental compounds on voltage-gated Ca^2+, Na^+ and K^+ channels. […] Sodium and potassium channel currents were measured from acutely dissociated SCG neurons.
(§2) Dissociation of the neurons from the ganglia was accomplished using a 30 to 45 minute treatment in 0.25% trypsin, similar to methods outlined in Higgins, et al. [see Higgins D., et al. “Tissue culture of mammalian autonomic neurons.” In Banker G. and Goslin K. (Eds), Culturing Nerve Cells, Cambridge, Mass., MIT Press (1991)].
(§3) Ca^2+, Na^+ and K^+ channel currents in SCG neurons were measured using conventional single electrode whole-cell voltage-clamp techniques, outlined in Hamill, et al., (see Hamill O.P., et al. “Improved patch-clamp techniques for high resolution current recordings from cells and cell-free membrane patches”. Pflugers Arch. 1981;391:85-100) For Ca^2+ channel experiments, the external bathing solution contained tetraethylammonium chloride (100 mM), choline chloride (52 mM), NaCl (15 mM), HEPES (10 mM), glucose (5.6 mM), CaCl2 (2 mM), and MgCl2 (0.8 mM) pH 7.35 with KOH; with the internal pipette solution containing cesium methane sulfonate (140 mM), EGTA (10 mM), and HEPES (10 mM), supplemented with 5 mM Mg^2+ -ATP on the day of the experiment, pH 7.4 with CsOH. For Na^+ and K^+ channel experiments, the external bathing solution contained NaCl (150 mM), KCl (5 mM), MgCl2 (1.1 mM), CaCl2 (2.6 mM), Na-HEPES (10 mM), and glucose (10 mM), pH 7.4; with the internal pipette solution containing KCl (80 mM), K-gluconate (50 mM), HEPES (10 mM), and EGTA (10 mM), pH 7.4 with KOH. Experimental compounds were diluted into the external solution and applied to the soma of cells by local perfusion from large diameter (20-50 μm) glass micropipettes or from a U-tube applicator.
(§4) For Na^+ and K^+ channel currents, following the determination of the I/V relationship for each cell in control solution, currents were evoked from a holding potential between −65 and −55 mV by stepping every 10 sec to a test potential of either 0 mV for Na^+ or +50 mV for K^+ current for a duration of 35 msec. Peak inward current was measured for Na^+ and sustained current for K^+ channel currents. […] Test compounds were applied until steady-state block was achieved. Data were expressed as percent inhibition of control amplitudes for Na^+ and K^+ channel currents.

In test [3] the test system is Na+ channels in superior cervical ganglion (SCG) neurons. As to the kind of experiment: Whole-cell voltage clamp, Na+ current in SCG neurons. It counts as cell-based, rat. The method, then:
as §1, §2, §3, §4

For test [4], the target named is T2, N-type Ca2+ channels in superior cervical ganglion (SCG) neurons (Rattus norvegicus, UniProt Q02294).
T2 construct: from tissue
T2 sequence (Q02294 whole entry): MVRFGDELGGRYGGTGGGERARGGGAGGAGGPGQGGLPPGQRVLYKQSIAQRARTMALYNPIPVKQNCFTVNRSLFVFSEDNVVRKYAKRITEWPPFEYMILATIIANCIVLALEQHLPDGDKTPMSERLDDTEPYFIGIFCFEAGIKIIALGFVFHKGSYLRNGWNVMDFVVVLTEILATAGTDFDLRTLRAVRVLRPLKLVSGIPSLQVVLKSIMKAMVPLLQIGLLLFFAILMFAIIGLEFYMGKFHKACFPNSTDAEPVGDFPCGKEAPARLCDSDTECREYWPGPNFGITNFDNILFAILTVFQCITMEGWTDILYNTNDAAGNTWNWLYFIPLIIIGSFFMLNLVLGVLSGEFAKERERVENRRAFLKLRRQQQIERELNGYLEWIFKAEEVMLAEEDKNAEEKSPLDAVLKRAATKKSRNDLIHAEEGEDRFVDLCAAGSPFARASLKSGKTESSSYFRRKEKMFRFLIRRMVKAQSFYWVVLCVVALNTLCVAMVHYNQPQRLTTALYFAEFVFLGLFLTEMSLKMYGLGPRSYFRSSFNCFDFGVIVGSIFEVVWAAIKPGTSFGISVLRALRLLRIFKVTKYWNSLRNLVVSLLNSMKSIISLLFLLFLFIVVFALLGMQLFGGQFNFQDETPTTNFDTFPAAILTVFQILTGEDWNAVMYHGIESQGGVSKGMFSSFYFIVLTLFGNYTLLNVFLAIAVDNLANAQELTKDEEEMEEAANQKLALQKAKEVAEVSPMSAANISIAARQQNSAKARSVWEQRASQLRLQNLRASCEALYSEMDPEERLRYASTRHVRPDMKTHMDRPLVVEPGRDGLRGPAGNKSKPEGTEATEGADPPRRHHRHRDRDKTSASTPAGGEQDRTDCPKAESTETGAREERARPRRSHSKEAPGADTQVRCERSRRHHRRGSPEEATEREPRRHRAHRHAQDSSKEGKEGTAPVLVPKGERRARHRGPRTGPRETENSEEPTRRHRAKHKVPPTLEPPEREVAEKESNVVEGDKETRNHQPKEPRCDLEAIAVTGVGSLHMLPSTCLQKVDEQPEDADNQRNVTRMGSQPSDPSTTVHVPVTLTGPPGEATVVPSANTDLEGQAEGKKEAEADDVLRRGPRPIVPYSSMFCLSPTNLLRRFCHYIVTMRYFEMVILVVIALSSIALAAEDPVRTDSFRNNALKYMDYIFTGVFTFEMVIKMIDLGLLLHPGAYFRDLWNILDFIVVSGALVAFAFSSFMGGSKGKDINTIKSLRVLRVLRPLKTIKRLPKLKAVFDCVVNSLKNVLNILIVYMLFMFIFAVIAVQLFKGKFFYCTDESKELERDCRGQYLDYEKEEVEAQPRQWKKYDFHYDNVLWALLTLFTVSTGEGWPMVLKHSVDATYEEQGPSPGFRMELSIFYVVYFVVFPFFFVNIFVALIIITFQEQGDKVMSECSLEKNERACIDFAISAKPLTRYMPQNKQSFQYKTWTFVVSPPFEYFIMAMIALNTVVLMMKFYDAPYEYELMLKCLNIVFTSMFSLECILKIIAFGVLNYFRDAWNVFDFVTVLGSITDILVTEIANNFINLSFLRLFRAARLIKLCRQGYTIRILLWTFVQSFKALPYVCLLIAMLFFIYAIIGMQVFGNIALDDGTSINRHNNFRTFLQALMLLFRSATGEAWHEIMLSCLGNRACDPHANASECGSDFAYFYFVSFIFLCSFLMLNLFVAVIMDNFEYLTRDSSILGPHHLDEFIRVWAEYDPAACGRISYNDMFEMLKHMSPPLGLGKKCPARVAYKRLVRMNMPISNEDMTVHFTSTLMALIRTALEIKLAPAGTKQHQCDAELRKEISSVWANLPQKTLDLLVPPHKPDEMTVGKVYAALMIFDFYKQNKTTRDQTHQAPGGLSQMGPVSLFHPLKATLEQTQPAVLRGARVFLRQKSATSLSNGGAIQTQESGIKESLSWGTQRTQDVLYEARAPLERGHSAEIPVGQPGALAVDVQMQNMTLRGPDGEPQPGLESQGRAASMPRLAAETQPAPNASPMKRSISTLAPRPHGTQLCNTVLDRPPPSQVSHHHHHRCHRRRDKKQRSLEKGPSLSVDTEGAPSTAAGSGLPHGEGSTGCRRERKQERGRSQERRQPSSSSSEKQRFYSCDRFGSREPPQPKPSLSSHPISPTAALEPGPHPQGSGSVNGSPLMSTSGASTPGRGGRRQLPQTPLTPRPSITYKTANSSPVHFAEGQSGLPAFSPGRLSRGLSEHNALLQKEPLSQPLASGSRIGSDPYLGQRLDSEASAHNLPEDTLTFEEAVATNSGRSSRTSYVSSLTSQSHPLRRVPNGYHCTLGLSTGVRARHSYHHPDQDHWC
T2 sequence (P54290 25-944 partner limits assumed): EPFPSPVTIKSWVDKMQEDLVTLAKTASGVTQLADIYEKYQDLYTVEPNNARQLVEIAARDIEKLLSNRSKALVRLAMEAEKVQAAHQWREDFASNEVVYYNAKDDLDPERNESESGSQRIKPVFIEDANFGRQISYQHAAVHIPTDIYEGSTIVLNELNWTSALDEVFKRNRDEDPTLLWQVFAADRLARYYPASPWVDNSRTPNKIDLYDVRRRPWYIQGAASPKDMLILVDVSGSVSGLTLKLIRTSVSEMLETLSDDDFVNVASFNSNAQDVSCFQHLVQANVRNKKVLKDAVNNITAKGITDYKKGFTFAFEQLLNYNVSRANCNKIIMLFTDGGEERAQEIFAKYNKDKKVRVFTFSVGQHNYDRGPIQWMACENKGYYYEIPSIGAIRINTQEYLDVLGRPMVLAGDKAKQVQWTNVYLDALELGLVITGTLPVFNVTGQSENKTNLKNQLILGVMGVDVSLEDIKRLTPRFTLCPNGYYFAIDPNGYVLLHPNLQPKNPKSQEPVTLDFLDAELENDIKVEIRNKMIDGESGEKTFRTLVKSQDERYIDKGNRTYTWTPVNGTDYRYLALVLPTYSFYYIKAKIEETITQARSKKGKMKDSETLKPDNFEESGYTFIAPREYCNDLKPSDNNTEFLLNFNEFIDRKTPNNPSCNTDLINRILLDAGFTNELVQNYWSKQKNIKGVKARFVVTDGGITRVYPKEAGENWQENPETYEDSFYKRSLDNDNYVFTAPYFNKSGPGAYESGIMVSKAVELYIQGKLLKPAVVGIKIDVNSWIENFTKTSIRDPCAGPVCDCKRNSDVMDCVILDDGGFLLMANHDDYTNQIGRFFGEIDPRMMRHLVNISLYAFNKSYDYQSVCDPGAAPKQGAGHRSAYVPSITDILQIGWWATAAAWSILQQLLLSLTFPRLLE
T2 sequence (P54290 945-1091 partner limits assumed): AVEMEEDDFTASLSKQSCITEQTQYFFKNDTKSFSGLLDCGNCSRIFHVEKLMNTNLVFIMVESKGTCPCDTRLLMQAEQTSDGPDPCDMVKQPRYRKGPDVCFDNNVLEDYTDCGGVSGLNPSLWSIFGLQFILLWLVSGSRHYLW
T2 sequence (P54287 whole entry partner): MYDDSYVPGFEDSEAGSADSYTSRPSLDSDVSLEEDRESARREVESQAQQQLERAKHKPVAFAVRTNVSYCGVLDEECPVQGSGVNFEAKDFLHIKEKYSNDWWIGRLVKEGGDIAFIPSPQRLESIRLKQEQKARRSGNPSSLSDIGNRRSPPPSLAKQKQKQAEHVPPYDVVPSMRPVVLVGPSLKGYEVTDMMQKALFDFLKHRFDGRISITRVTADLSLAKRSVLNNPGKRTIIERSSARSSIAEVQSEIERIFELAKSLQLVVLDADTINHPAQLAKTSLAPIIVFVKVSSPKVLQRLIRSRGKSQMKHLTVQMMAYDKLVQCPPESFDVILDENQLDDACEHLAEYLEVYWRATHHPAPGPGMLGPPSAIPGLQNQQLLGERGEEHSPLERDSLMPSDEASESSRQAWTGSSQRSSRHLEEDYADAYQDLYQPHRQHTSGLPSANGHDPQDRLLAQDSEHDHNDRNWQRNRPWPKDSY
As to the kind of experiment: Whole-cell voltage clamp, N-type Ca2+ current in SCG neurons. It counts as cell-based. The note with it: 10 μM. The procedure:
as §1, §2, §3
After obtaining a whole-cell recording, Ca^2+ channels were elicited by stepping to test potentials between −40 and +20 mV for 120 msec from the holding potential of −90 mV to determine if the amplitude of the current and clamp control were adequate for evaluation of drug effects. Ca^2+ channel currents were evoked by stepping from a holding potentials between −65 mV and −−55 mV to a test potential of +20 mV for 150 msec every 40 seconds. The amplitude of the Ca^2+ channel currents were compared before and during drug application and drug effects expressed as percent inhibition of the amplitude of control currents.

One may read the IC50 as the concentration that inhibits the measured activity by half. Broadly, the inhibition is the change of the read-out against control, counted positive when it falls.

Regarding `CC(C)(C)NC(=O)[C@H](Cc1ccc(OCc2ccccc2)cc1)NC(=O)[C@@H]1CC2CCCCC2N1C(=O)N1CCCCCC1` (relative stereo) [Example 161, [S-(R*,R*)]-1-(Azepane-1-carbonyl)-octahydro-indole-2-carboxylic acid [2-(4-benzyloxy-phenyl)-1-tert-butylcarbamoyl-ethyl]-amide], the IC50 was 2500 nM in test [1], 5450 nM in test [2] (read-out: Inhibition of K+ Current IC50) and 14000 nM in test [3] (read-out: Inhibition of Na+ Current IC50). Moreover, the “Inhibition of K+ Current, % Inhibition at 10 μM” value in test [2] was 68%. Besides, the “Inhibition of Na+ Current, % Inhibition at 10 μM” value in test [3] is 42%. The “Inhibition of N-type Ca2+ Current, % Inhibition at 10 μM” value in test [4] is given as 61%.
For the molecule `CC(C)C[C@H](NC(=O)N1CCCCCC1)C(=O)N[C@@H](Cc1ccc(OCc2ccccc2)cc1)C(=O)N1CCN(Cc2ccccc2)CC1` (relative stereo) [Example 180, [S-(R*,R*)]-Azepane-1-carboxylic acid {1-[1-(4-benzyloxy-benzyl)-2-(4-benzyl-piperazin-1-yl)-2-oxo-ethylcarbamoyl]-3-methyl-butyl}-amide], in test [1] (1 μM), the “Inhibition of Calcium Flux in IMR-32 Cells % Inhibition at 1 μM” value is reported as 55%. Moreover, the IC50 in test [1] worked out at 820 nM. The “Inhibition of K+ Current, % Inhibition at 10 μM” value in test [2] was 60%. The “Inhibition of Na+ Current, % Inhibition at 10 μM” value in test [3] turned out to be 20%. Also, the “Inhibition of N-type Ca2+ Current, % Inhibition at 10 μM” value in test [4] was 81%.
Take `CC(C)C[C@H](NC(=O)N1CCCCCC1)C(=O)N[C@H](Cc1ccc(OCc2ccccc2)cc1)C(=O)OC(C)(C)C` [Example 2, 2(R)-{2(S)-[(Azepane-1-carbonyl)-amino]-4-methyl-pentanoylamino}-3-(4-benzyloxy-phenyl)-propionic acid tert-butyl ester]: in test [1], the inhibition at 1 µM came to 38%, the inhibition at 10 µM worked out at 90% and the IC50 was 1700 nM. For the same molecule, the “Inhibition of K+ Current, % Inhibition at 10 μM” value in test [2] was 41%. For the same molecule, in test [3], the “Inhibition of Na+ Current, % Inhibition at 10 μM” value was determined as 35%. The same molecule yielded an inhibition at 10 µM in test [4] of 32%.
For the molecule `CC(C)C[C@@H](NC(=O)N1CCCCCC1)C(=O)N[C@@H](Cc1ccc(OCc2ccccc2)cc1)C(=O)OC(C)(C)C` [Example 3, 2(S)-{2(R)-[(Azepane-1-carbonyl)-amino]-4-methyl-pentanoylamino}-3-(4-benzyloxy-phenyl)-propionic acid tert-butyl ester], in test [1], the inhibition at 1 µM was determined as 53%, the inhibition at 10 µM was found to be 90% and the IC50 worked out at 990 nM. Further, the “Inhibition of K+ Current, % Inhibition at 10 μM” value in test [2] was 39%. Further, the “Inhibition of Na+ Current, % Inhibition at 10 μM” value in test [3] is recorded as 12%. This molecule also gave an inhibition at 10 µM in test [4] of 69%.
For the molecule `CC(C)C[C@@H](NC(=O)N1CCCCCC1)C(=O)N[C@H](Cc1ccc(OCc2ccccc2)cc1)C(=O)OC(C)(C)C` [Example 4, [R-(R*,R*)]-2-{2-(Azepane-1-carbonyl)-amino]-4-methyl-pentanoylamino}-3-(4-benzyloxy-phenyl)-propionic acid tert-butyl ester], in test [1], the inhibition at 1 µM was found to be 51%, the inhibition at 10 µM worked out at 90% and the IC50 is 900 nM. Also, in test [2], the “Inhibition of K+ Current, % Inhibition at 10 μM” value was 38%. In addition, the “Inhibition of Na+ Current, % Inhibition at 10 μM” value in test [3] is listed as 13%. In test [4], 10 µM produced 51% inhibition.
For the molecule `CC(C)CC(NC(=O)N1CCCCCC1)C(=O)NC(C)(Cc1ccc(OCc2ccccc2)cc1)C(=O)OC(C)(C)C` (stereo not drawn) [Example 11A, [S-(R*,R*)]-2-{2-[(Azepane-1-carbonyl)-amino]-4-methyl-pentanoylamino}-3-(4-benzyloxy-phenyl)-2-methyl-propionic acid tert-butyl ester], in test [1], the inhibition at 1 µM amounted to 61%, the inhibition at 10 µM came out at 88% and the IC50 worked out at 530 nM. Further, in test [2], the “Inhibition of K+ Current, % Inhibition at 10 μM” value came out at 47%. Besides, the “Inhibition of Na+ Current, % Inhibition at 10 μM” value in test [3] is listed as 11%. 10 µM produced 47% inhibition in test [4].

For the origin of these results see patent US6423689B1, “Peptidyl calcium channel blockers” (Warner-Lambert Company, priority 1997, dated 2002).
